Source: patent publication US11098041B2 (Merck Patent GmbH, priority 2014, dated 2021)

Legend:
[1] = biological target: full-length human BTK (Homo sapiens (Human), UniProt Q06187); experiment: Assay A: microfluidic off-chip mobility shift assay against BTK enzyme; format: biochemical
Experimental: Assay A: Microfluidic Off-Chip Mobility Shift Assay Protocol for Potency Assessment Against BTK Enzyme
The protocol below describes microfluidic, off-chip mobility shift kinase assay to measure inherent potency of compounds against BTK enzyme.
5 uL of enzyme buffer and 7.5 uL of ATP/kinKDR peptide substrate mix were added to Matrix (#115304) 384-well, sterile, polypropylene plates (Thermo Fisher Scientific, Hudson, N.H.) with 125 nL of serially diluted compounds prepared in 100% DMSO, and incubated for 90 min. at 27° C. Following the incubation period, reactions were stopped by adding 60 uL stop buffer consisting of 100 mM HEPES, pH 7.5, 0.015% Brij-35 (30%), 0.277% Coating Reagent #3 (Caliper Life Sciences, Mountain View, Calif.), 5% DMSO. Stopped reactions were monitored at −2 PSI, −3000 V/−700 V in a LabChip 3000 plate reader from Caliper Life Sciences, a PerkinElmer Company (Hopkinton, Mass.), and the activity was measured by off-chip mobility shift assay measuring the charge/mass difference between substrate and product resulting from peptide phosphorilation. IC50 and efficacy were determined by plotting log [Inhibitor] vs. % Activity in GeneData Screener (Basel. Switzerland).

[2] = biological target: BTK C481S (His-TEV-hsBTK(328-659)(C481S)) (Homo sapiens (Human), UniProt Q06187, C481S); experiment: Assay B: microfluidic off-chip mobility shift assay against BTK C481S enzyme; format: biochemical; conditions: BTK C481S mutant
Experimental: The mechanics of the assay platform are described by the vendor (PerkinElmer, Hopkinton, Mass.) on their website at the following URL: http://caliperls.com.
5 uL of enzyme buffer and 7.5 uL of ATP/KinKDR peptide substrate mix were added to Matrix (#4315) 384-well, sterile, flat-bottom polypropylene plates (Thermo Fisher Scientific, Hudson, N.H.) with 125 nL of serially diluted compounds prepared in 100% DMSO, and incubated for 90 min. at 25° C. Following the incubation period, reactions were terminated by adding 65 uL quench buffer consisting of 100 mM HEPES, pH 7.5, 0.015% Brij-35 (30%), 0.277% Coating Reagent #3 (PerkinElmer, Mountain View, Calif.), 5% DMSO. Terminated reactions were monitored at −2 PSI, −3000 V/−700 Volts in a LabChip 3000 plate reader from Caliper Life Sciences, a PerkinElmer Company (Hopkinton, Mass.), and the activity was quantified by laser-induced fluorescence measuring the charge/mass difference between substrate and product resulting from peptide phosphorylation. IC50 and efficacy were determined by plotting log [Inhibitor] vs. % Activity in GeneData Screener (Basel, Switzerland).

BTK C481S (His-TEV-hsBTK(328-659)(C481S)), sequence (Q06187 328-659 C481S): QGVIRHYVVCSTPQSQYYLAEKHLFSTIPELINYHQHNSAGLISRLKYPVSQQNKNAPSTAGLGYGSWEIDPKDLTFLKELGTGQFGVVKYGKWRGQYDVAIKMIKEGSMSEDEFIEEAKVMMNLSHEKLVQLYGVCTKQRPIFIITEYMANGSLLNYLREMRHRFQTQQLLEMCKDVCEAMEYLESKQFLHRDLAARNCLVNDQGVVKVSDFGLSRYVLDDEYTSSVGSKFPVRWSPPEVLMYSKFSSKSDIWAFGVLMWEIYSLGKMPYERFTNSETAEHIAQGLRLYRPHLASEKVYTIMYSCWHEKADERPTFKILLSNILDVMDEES
full-length human BTK, sequence (Q06187 whole entry): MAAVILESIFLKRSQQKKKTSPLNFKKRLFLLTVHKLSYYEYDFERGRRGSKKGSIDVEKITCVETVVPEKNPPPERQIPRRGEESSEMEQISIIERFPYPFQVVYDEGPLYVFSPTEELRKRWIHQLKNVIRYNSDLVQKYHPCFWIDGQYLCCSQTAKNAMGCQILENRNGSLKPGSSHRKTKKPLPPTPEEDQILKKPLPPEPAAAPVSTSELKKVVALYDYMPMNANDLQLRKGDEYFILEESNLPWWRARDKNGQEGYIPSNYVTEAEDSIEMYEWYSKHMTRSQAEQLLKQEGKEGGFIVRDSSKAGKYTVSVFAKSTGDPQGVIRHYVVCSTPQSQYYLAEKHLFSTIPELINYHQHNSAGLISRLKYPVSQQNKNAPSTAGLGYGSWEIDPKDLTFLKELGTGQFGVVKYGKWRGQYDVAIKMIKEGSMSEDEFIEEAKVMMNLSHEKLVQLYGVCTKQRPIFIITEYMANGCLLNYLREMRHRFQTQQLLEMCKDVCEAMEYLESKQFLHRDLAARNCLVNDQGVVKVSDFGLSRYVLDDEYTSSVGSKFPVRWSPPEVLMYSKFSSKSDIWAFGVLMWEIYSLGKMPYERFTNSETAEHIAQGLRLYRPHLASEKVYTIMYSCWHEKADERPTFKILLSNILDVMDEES

Row | IC50 [1] | IC50 [2] | Compound
1 | 1000 to 5000 nM | < 100 nM | Cn1cc(-c2nc3c(-c4cccc(NC(=O)c5noc(C6CC6)n5)c4CO)ccnc3[nH]2)cn1 [Example 44, 5-Cyclopropyl-N-[2-(hydroxymethyl)-3-[2-(1-methyl-1H-pyrazol-4-yl)-3H-imidazo[4,5-b]pyridin-7-yl]phenyl]-1,2,4-oxadiazole-3-carboxamide]
2 | < 100 nM | < 100 nM | CC(C)(C)c1noc(C(=O)NCc2ccc(-c3ccnc4[nH]c(-c5ccncc5)nc34)cc2F)n1 [Example 150, 3-(tert-butyl)-N-(2-fluoro-4-(2-(pyridin-4-yl)-3H-imidazo[4,5-b]pyridin-7-yl)benzyl)-1,2,4-oxadiazole-5-carboxamide]
3 | 100 to 1000 nM | < 100 nM | C[C@@H]1CN(c2ccc(-c3nc4c(-c5cccc(NC(=O)c6noc(C(C)(C)C)n6)c5CO)ccnc4[nH]3)cc2)C[C@H](C)O1 [Example 47, 5-tert-Butyl-N-[3-(2-[4-[(2R,6S)-2,6-dimethylmorpholin-4-yl]phenyl]-3H-imidazo[4,5-b]pyridin-7-yl)-2-(hydroxymethyl)phenyl]-1,2,4-oxadiazole-3-carboxamide]
4 | 100 to 1000 nM | 100 to 1000 nM | Cn1cc(-c2nc3c(-c4cccc(NC(=O)c5noc(C(C)(C)C)n5)c4CO)ccnc3[nH]2)cn1 [Example 43, 5-tert-Butyl-N-[2-(hydroxymethyl)-3-[2-(1-methyl-1H-pyrazol-4-yl)-3H-imidazo[4,5-b]pyridin-7-yl]phenyl]-1,2,4-oxadiazole-3-carboxamide]
5 | 100 to 1000 nM | < 100 nM | CC(C)(C)c1nc(C(=O)Nc2cccc(-c3ccnc4[nH]c(-c5ccc(N6CCC(F)(F)CC6)cc5)nc34)c2CO)no1 [Example 48, 5-tert-Butyl-N-(3-[2-[4-(4,4-difluoropiperidin-1-yl)phenyl]-3H-imidazo[4,5-b]pyridin-7-yl]-2-(hydroxymethyl)phenyl)-1,2,4-oxadiazole-3-carboxamide]
6 | < 100 nM | < 100 nM | Cn1ccc(-c2nc3c(-c4ccc(CNC(=O)c5nnc(C(C)(C)C)o5)c(F)c4)ccnc3[nH]2)cc1=O [Example 141, 5-tert-Butyl-[1,3,4]oxadiazole-2-carboxylic acid 2-fluoro-4-[2-(1-methyl-2-oxo-1,2-dihydro-pyridin-4-yl)-3H-imidazo[4,5-b]pyridin-7-yl]-benzylamide]
7 | < 100 nM | < 100 nM | COc1cccc(-c2nc3c(-c4cc(F)c(CNC(=O)c5noc(C(C)(C)C)n5)cc4C)ccnc3[nH]2)c1 [Example 78, 5-tert-Butyl-N-([2-fluoro-4-[2-(3-methoxyphenyl)-3H-imidazo[4,5-b]pyridin-7-yl]-5-methylphenyl]methyl)-1,2,4-oxadiazole-3-carboxamide]
8 | < 100 nM | – | COc1ccc(-c2nc3c(-c4ccc(CNC(=O)c5nnc(C(C)(C)C)o5)c(F)c4)ccnc3[nH]2)nc1 [Example 158, 5-tert-butyl-N-([2-fluoro-4-[2-(5-methoxypyridin-2-yl)-3H-imidazo[4,5-b]pyridin-7-yl]phenyl]methyl)-1,3,4-oxadiazole-2-carboxamide]

Second part, the molecule before the results:

Row | Compound | IC50 [1] | IC50 [2]
9 | CC(C)(C)c1cc(C(=O)NCc2ccc(-c3ccnc4[nH]c(C5CCNC(=O)C5)nc34)cc2F)no1 (stereo not drawn) [Example 29, 5-tert-Butyl-isoxazole-3-carboxylic acid 2-fluoro-4-[2-(2-oxo-piperidin-4-yl)-3H-imidazo[4,5-b]pyridin-7-yl]-benzylamide] | 1000 to 5000 nM | 100 to 1000 nM
10 | Cn1cc(-c2nc3c(-c4ccc(CO)c(F)c4)ccnc3[nH]2)cn1 [Example 32, {2-Fluoro-4-[2-(1-methyl-1H-pyrazol-4-yl)-3H-imidazo[4,5-b]pyridin-7-yl]-phenyl}-methanol] | 1000 to 5000 nM | 100 to 1000 nM
11 | Cn1cc(-c2nc3c(-c4ccc(CNC(=O)c5csc(C(F)(F)F)n5)c(F)c4)ccnc3[nH]2)cn1 [Example 22, 2-Trifluoromethyl-thiazole-4-carboxylic acid 2-fluoro-4-[2-(1-methyl-1H-pyrazol-4-yl)-3H-imidazo[4,5-b]pyridin-7-yl]-benzylamide] | 100 to 1000 nM | 100 to 1000 nM
12 | CC(C)(C)c1ccc(C(=O)NCc2ccc(-c3ccnc4[nH]c(C5CC5)nc34)cc2F)cc1 [Example 26, 4-tert-Butyl-N-[4-(2-cyclopropyl-3H-imidazo[4,5-b]pyridin-7-yl)-2-fluoro-benzyl]-benzamide] | < 100 nM | < 100 nM
13 | Cn1cc(-c2nc3c(-c4cnc(CNC(=O)c5nnc(C(C)(C)C)o5)c(F)c4)ccnc3[nH]2)cn1 [Example 13, 5-tert-Butyl-[1,3,4]oxadiazole-2-carboxylic acid {3-fluoro-5-[2-(1-methyl-1H-pyrazol-4-yl)-3H-imidazo[4,5-b]pyridin-7-yl]-pyridin-2-ylmethyl}-amide] | 100 to 1000 nM | < 100 nM
14 | CC(C)(C)c1nnc(C(=O)NCc2ccc(-c3ccnc4[nH]c(-c5cnn(C6COC6)c5)nc34)cc2F)s1 [Example 125, 5-tert-Butyl-[1,3,4]thiadiazole-2-carboxylic acid 2-fluoro-4-[2-(1-oxetan-3-yl-1H-pyrazol-4-yl)-3H-imidazo[4,5-b]pyridin-7-yl]-benzylamide] | < 100 nM | < 100 nM
15 | Cc1cc(-c2ccnc3[nH]c(-c4cnn(C)c4)nc23)ccc1CNC(=O)C(N)=O [Example 101, N-{2-Methyl-4-[2-(1-methyl-1H-pyrazol-4-yl)-3H-imidazo[4,5-b]pyridin-7-yl]-benzyl}-oxalamide] | 1000 to 5000 nM | 1000 to 5000 nM
16 | Cn1cc(-c2nc3c(-c4ccc5c(c4)CN(C(=O)c4nc(C(C)(C)C)no4)CC5)ccnc3[nH]2)cn1 [Example 155, (3-tert-Butyl-[1,2,4]oxadiazol-5-yl)-{7-[2-(1-methyl-1H-pyrazol-4-yl)-3H-imidazo[4,5-b]pyridin-7-yl]-3,4-dihydro-1H-isoquinolin-2-yl}-methanone] | > 5000 nM | > 5000 nM
17 | Cn1cc(-c2nc3c(-c4ccc(C5CCCN5C(=O)c5ccc(C(C)(C)C)cc5)cc4)ccnc3[nH]2)cn1 (stereo not drawn) [Example 121, (4-tert-Butyl-phenyl)-(2-{4-[2-(1-methyl-1H-pyrazol-4-yl)-3H-imidazo[4,5-b]pyridin-7-yl]-phenyl}-pyrrolidin-1-yl)-methanone] | < 100 nM | < 100 nM
18 | Cn1cc(-c2nc3c(-c4ccc(CN5CCOc6cc(C7CC7)cc(F)c6C5=O)cc4CO)ccnc3[nH]2)cn1 [Example 38, 8-Cyclopropyl-6-fluoro-4-[[3-(hydroxymethyl)0-4-[2-(1-methyl-1H-pyrazol-4-yl)-3H-imidazo[4,5-b]pyridin-7-yl]phenyl]methyl]-2,3,4,5-tetrahydro-1,4-benzoxazepin-5-one] | 100 to 1000 nM | 100 to 1000 nM
19 | CC(C)(C)c1noc(C(=O)NCc2ccc(-c3ccnc4[nH]c(C5CCNC(=O)C5)nc34)cc2F)n1 (stereo not drawn) [Example 31, 3-tert-Butyl-[1,2,4]oxadiazole-5-carboxylic acid 2-fluoro-4-[2-(2-oxo-piperidin-4-yl)-3H-imidazo[4,5-b]pyridin-7-yl]-benzylamide] | 1000 to 5000 nM | 100 to 1000 nM
20 | Cn1cc(-c2nc3c(-c4ccc(CNC(=O)CCC(C)(C)C)c(F)c4)ccnc3[nH]2)cn1 [Example 21, 4,4-Dimethyl-pentanoic acid 2-fluoro-4-[2-(1-methyl-1H-pyrazol-4-yl)-3H-imidazo[4,5-b]pyridin-7-yl]-benzylamide] | < 100 nM | < 100 nM
